Data on seven compounds can be found in patent US20160041146A1 (priority 2014, published 2016).

Read-outs that look alike come from different tables or passages of the source.

The format of the series is in vivo, human. The conditions noted are these: for Urine concentration (median): 50 subjects; for μA, population mean of ln(PMET/SMET), ratio of primary (parent) to secondary metabolite concentration in urine: large batch of historical UDT patient data (for quetiapine: model A), the σA is the standard deviation. The text has this: Determining the amount of a drug in fluid of the subject may be accomplished by use of any method known to those skilled in the art. Non-limiting examples for determining the amount of a drug in fluid of a subject include fluorescence polarization immunoassay (“FPIA,” Abbott Diagnostics), mass spectrometry (MS), gas chromatography-mass spectrometry (GC-MS-MS), liquid chromatography-mass spectrometry (LC-MS-MS), and the like. In one embodiment, LC-MS-MS methods known to those skilled in the art are used to determine a raw level, amount or concentration of a drug in urine of the subject. In one embodiment, a raw level or concentration of a drug in urine of a subject is measured and reported as a ratio, percent, or in relationship to the amount of fluid. The amount of fluid may be expressed as a unit volume, for example, in L, mL, μL, pL, ounce, etc. In one embodiment, the raw amount of a drug in urine of a subject may be expressed as an absolute level or value, for example, in g, mg, μg, ng, pg, etc.
In an embodiment, the raw primary metabolite and secondary metabolite concentrations measured in urine of the subject are transformed and normalized (hereafter “Equation 3”): […]
where ln is the natural log, PMET is the concentration of the primary metabolite also referred to as the parent drug in […]; and SMET is the concentration of the secondary metabolite in […]. The value is then transformed into its corresponding value on the standard normal (e.g., Gaussian) distribution using (hereafter “Equation 4): […]
where NORMSTD(RATIO) is the standardized normal value (also referred to herein as the Z-score) and μA and σA are the mean and the standard deviation respectively of the population used to construct the model described in Equation 3. The resulting mean and standard deviation of the standardized normal distribution, NORMSTD(RATIO), are “0” and “1” respectively.
The Data Sets used to establish the ratio models were cleaned as detailed below and the resulting information used only considered patients who tested positive for the primary and secondary metabolite of interest and were prescribed the drug of interest. Furthermore, to ensure integrity of the data only patients with qualifying sample validity test information (sample pH and sample creatinine level), as described in detail in other embodiments were included in the model. […] Consequently, all patients were included in the model regardless of whether their illicit drug test was positive or negative.
Once the patient(s) meet acceptable Sample Validity test results and non-zero values, expected values based on the model can be calculated using the models described below (Equation 3 and Equation 4 detailed in other embodiments).

Setting [1] is: patient validity data set for Quetiapine models, average quetiapine dosage 299 mg.
[2] abbreviates: patient validity data set for Alprazolam model, average alprazolam dosage 2.26 mg.
[3] abbreviates: Oxycodone model population, approximately 48,800 patient results over one year, average daily dosage 36 mg.
The mark [4] stands for this setting: patient validity data set for Oxycodone model, average oxycodone dosage 24 mg.

For `OCCOCCN1CCN(C2=Nc3ccc(O)cc3Sc3ccccc32)CC1` [7-hydroxyquetiapine], the “median urine drug concentration” value reads like this: (Alprazolam model population, approximately 256,000 patient results over nine years, average daily dosage 3 mg) 329 ng/mL; (Quetiapine model A population, approximately 5,455 patient results collected over three years, average daily dosage 229 mg) 95 ng/mL; (Quetiapine model B population, approximately 236 patient results, six month clinical trial, average daily dosage 310 mg) 55 ng/mL. The “Urine concentration (median)” value under setting [1] is reported as 62 ng/mL.
Turning to `OCc1nnc2n1-c1ccc(Cl)cc1C(c1ccccc1)=NC2` [alpha-hydroxyalprazolam], under setting [2], the “Urine concentration (median)” value came to 265 ng/mL.
For `Cc1nnc2n1-c1ccc(Cl)cc1C(c1ccccc1)=NC2` [alprazolam], the “μA, population mean of ln(PMET/SMET), ratio of primary (parent) to secondary metabolite concentration in urine” value is listed as −0.463. In addition, under setting [2], the “Urine concentration (median)” value came to 118 ng/mL.
For `COc1ccc2c3c1O[C@H]1C(=O)CC[C@H]4[C@@H](C2)N(C)CC[C@]314` [hydrocodone], the “μA, population mean of ln(PMET/SMET), ratio of primary (parent) to secondary metabolite concentration in urine” value is listed as 0.996. Under “Hydrocodone model population, approximately 84,000 patient results over one year, average daily dosage 32 mg”, the “median urine drug concentration” value was 1395 ng/mL. Further, for the setting “patient validity data set for Hydrocodone model, average hydrocodone dosage 26 mg”, the “Urine concentration (median)” value is 1428 ng/mL.
`COc1ccc2c3c1O[C@H]1C(=O)CC[C@@]4(O)[C@@H](C2)N(C)CC[C@]314` [oxycodone]: the “μA, population mean of ln(PMET/SMET), ratio of primary (parent) to secondary metabolite concentration in urine” value was −0.083. In addition, the “median urine drug concentration” value under setting [3] worked out at 1421 ng/mL. Moreover, under setting [4], the “Urine concentration (median)” value was found to be 1509 ng/mL.
Consider `CN1CC[C@]23c4c5ccc(O)c4O[C@H]2C(=O)CC[C@@]3(O)[C@H]1C5` [oxymorphone], for which the “median urine drug concentration” value under setting [3] is given as 1248 ng/mL. Besides, the “Urine concentration (median)” value under setting [4] is recorded as 1579 ng/mL.
For `OCCOCCN1CCN(C2=Nc3ccccc3Sc3ccccc32)CC1` [quetiapine], the “Urine concentration (median)” value under setting [1] was determined as 69 ng/mL.
